# Literature values in patent publication US12023346B1, “Compositions and methods for treating epilepsy” (POVIVA CORP, priority 2023, dated 2024).
# Like-named read-outs stand apart in the source and are kept apart here.
smiles,measurement,setting,value
"C=C(C)[C@@H]1CCC(C)=C[C@H]1c1c(O)cc(CCCCC)cc1O [Cannabidiol, 2-[(1R,6R)-6-Isopropenyl-3-methylcyclohex-2-en-1-yl]-5-pentylbenzene-1,3-diol]","Plasma concentration on Day 22 at target CBD dose, 5 hours, Mean (SD)",5 mg/kg/day (N = 10),72.1 (49.0) ng/mL
same,"Plasma concentration on Day 22 at target CBD dose, […], Mean (SD)",5 mg/kg/day (N = 10),130 (170) ng/mL
same,"Plasma concentration on Day 1 at starting CBD dose, 5 hours, Mean (SD)",5 mg/kg/day group (N = 10),10.0 (5.74) ng/ml
same,"Plasma concentration on Day 1 at starting CBD dose, Pre-dose, Mean (SD)",5 mg/kg/day group (N = 10),0 ng/mL
same,"Plasma concentration on Day 1 at starting CBD dose, […], Mean (SD)",5 mg/kg/day group (N = 10),37.6 (53.7) ng/ml
same,"Plasma concentration on Day 22 at target CBD dose, 5 hours, Mean (SD)",10 mg/kg/day (N = 8),288 (345) ng/mL
same,"Plasma concentration on Day 22 at target CBD dose, […], Mean (SD)",10 mg/kg/day (N = 8),242 (159) ng/mL
same,"Plasma concentration on Day 1 at starting CBD dose, 5 hours, Mean (SD)",10 mg/kg/day group (N = 8),11.3 (11.7) ng/ml
same,"Plasma concentration on Day 1 at starting CBD dose, Pre-dose, Mean (SD)",10 mg/kg/day group (N = 8),0 ng/mL
same,"Plasma concentration on Day 1 at starting CBD dose, […], Mean (SD)",10 mg/kg/day group (N = 8),34.4 (32.1) ng/ml
same,"Plasma concentration on Day 22 at target CBD dose, 5 hours, Mean (SD)",20 mg/kg/day (N = 9),308 (321) ng/mL
same,"Plasma concentration on Day 22 at target CBD dose, […], Mean (SD)",20 mg/kg/day (N = 9),380 (370) ng/mL
same,"Plasma concentration on Day 1 at starting CBD dose, 5 hours, Mean (SD)",20 mg/kg/day group (N = 9),25.3 (42.4) ng/ml
same,"Plasma concentration on Day 1 at starting CBD dose, Pre-dose, Mean (SD)",20 mg/kg/day group (N = 9),0 ng/mL
same,"Plasma concentration on Day 1 at starting CBD dose, […], Mean (SD)",20 mg/kg/day group (N = 9),29.3 (28.5) ng/ml
